Laboratory results reported in patent US7867976B2, “Nogo epitopic fragments for modulating immune response” (The Board of Trustees of the Leland Stanford Junior …, priority 2003, dated 2011).

Legend:
[1] = target: Normal Mouse Serum; assay: myelin antigen microarray; positive-control feature 'Anti-mouse IgG/M' capturing immunoglobulin of the serum in column 'a. Normal'
[2] = tested on: whole lymph node cells; assay: whole lymph node cell proliferation assay against Nogo and irrelevant peptides after Nogo-66 peptide immunization; format: cell-based, mice; conditions: draining lymph nodes at end of experiments
Description: Induction of EAE and T cell responses with Nogo-66 peptides in susceptible mouse strains. To ascertain the potential for Nogo-A to act as a target autoantigen for autoimmune demyelination, we chose to focus on the exposed extracellular 66-amino acid loop, Nogo-66, since this should be the region most prone to interaction with immune cells. EAE susceptible SJL/J and C57BU6 female mice of the appropriate age were subcutaneously immunized with Nogo-66 derived peptides in CFA, in various concentration ranging from 200 μg to 1000 μg, together with intravenous administration of Pertussis toxin.
Three different arbitrarily selected peptides were synthesized to encompass the whole sequence (peptides 1-22, 23-44 and 45-66). […] To evaluate the generation of a T cell proliferative response against the immunizing antigen, we collected draining lymph nodes at the end of the experiments and setup whole lymph node cell proliferation assays against our panel of Nogo and irrelevant peptides. […] Therefore, T cell epitopes appear to be slightly different between these two strains.
(§1) Immunization. For Nogo immunizations, SJL/J and C57BU6 female mice were injected subcutaneously with Nogo-peptide emulsions (concentrations ranging from 100 μg to 500 μg per injection) in CFA, consisting of IFA (Difco) and 1 mg/ml heat-inactivated Mycobacterium tuberculosis (strain H37RA; Difco laboratories, Detroit Mich.). Animals received two subcutaneous injections a week apart in different sites (flank and groin); at the time of the second immunization and 48 hours later, mice were injected intravenously with Bordetella pertussis toxin (List Laboratories) in PBS, 500 ng/animal; For Nogo-A/B/C knockouts, animals were immunized subcutaneously with 100 μg of MOG35-55 peptide emulsion in CFA and received two intravenous injections of 300 ng of Bordetella pertussis toxin, at the time of immunization and 48 hours later. Chronic EAE was induced in SJL/J mice by subcutaneous injection of 100 mg of PLP139-151 peptide emulsion in CFA. Animals were clinically scored daily according to the following scale: 0-normal; 1-tail paralysis; 2-hind limb paraparesis; 3-complete hind limb paralysis; 4-forelimb paresis or paralysis; 5-death.
Proliferation assays. Whole lymph node cells were cultured in 96-well microtiter plates at 0.5×10^6 cells/well. Culture medium consisted of RPMI 1640 supplemented with L-glutamine (2 mM), sodium pyruvate (1 mM), non-essential amino acids (0.1 mM), penicillin (100 U/ml), streptomycin (0.1 mg/ml), 2-ME (5×10^−5 M) and 10% fetal bovine serum. Wells were pulsed with 1 μCi [^3H]TdR for the final 16 hours of culture, and incorporated radioactivity was measured using a betaplate scintillation counter.

[3] = tested on: myelin antigens (2304-feature spotted peptide array, 293 distinct antigens); assay: antibody (B cell) response of sera from immunized animals on spotted peptide array; format: in vivo, mice; conditions: for epitope spreading of the B cell response to other myelin antigens: sera on proteome array, statistical and cluster analysis
Description: Nogo-66 peptide immunization induces a B cell response with epitope spreading to other myelin antigens. To follow the induction of a specific antibody response to the immunizing Nogo peptides, and the possible spread to other myelin antigens, we used an 2304-feature spotted peptide array developed in our laboratory that contains 293 distinct antigens including proteins and sets of overlapping peptides representing all major EAE-relevant targets and several Nogo-66 overlapping peptides together with p472 (Robinson, 2001). Sera from several immunized animals was obtained at different time points after EAE induction with all three Nogo peptides, and hybridized to the proteome array according to our protocol.
This was particularly relevant after immunization with pNogo45-66 in both strains, and with pNogo23-44 for C57BU6 mice. Spreading of the B cell response evidenced a specific pattern for each immunizing antigen within each strain, with very little overlap between them.
as §1, with “Chronic EAE was induced in SJL/J mice by subcutaneous injection of 100 mg of PLP139-151 peptide emulsion in CFA.” left out

[4] = tested on: EAE in SJL/J mice; assay: adoptive transfer of Nogo-reactive T cells into SJL/J mice with PLP139-151 induced EAE; format: in vivo; conditions: cells of EAE animals that received TCL; compared with PLP139-151
Protocol: We induced EAE in SJL/J mice by immunization with 100 μg of PLP139-151 peptide in CFA and followed these animals for disease course. At the peak of second relapse (day 31), animals were randomized into three groups and received either weekly PBS, anti-pNogo1-22 or anti-pNogo45-66 reactive T cells in PBS (average of 15 million cells), by intravenous administration for three weeks. […] For these animals, this improvement was maintained throughout the next 45 days of the experiment, up to 30 days after the last TCL administration.
Immunization. For Nogo immunizations, SJL/J and C57BU6 female mice were injected subcutaneously with Nogo-peptide emulsions (concentrations ranging from 100 μg to 500 μg per injection) in CFA, consisting of IFA (Difco) and 1 mg/ml heat-inactivated Mycobacterium tuberculosis (strain H37RA; Difco laboratories, Detroit Mich.). […] Animals were clinically scored daily according to the following scale: 0-normal; 1-tail paralysis; 2-hind limb paraparesis; 3-complete hind limb paralysis; 4-forelimb paresis or paralysis; 5-death.
Proliferation assays. […] Wells were pulsed with 1 μCi [^3H]TdR for the final 16 hours of culture, and incorporated radioactivity was measured using a betaplate scintillation counter.

[5] = tested on: whole lymph node cells (T cells, dendritic cells); assay: FACScan analysis of activation markers and co-stimulatory molecules after immunization; format: cell-based, mice; conditions: female SJL/J, 10 days post-immunization; compared with PLP139-151
Description: We purified whole lymph node cells from female SJL/J animals 10 days post-immunization with PLP139-151, pNogo1-22 and pNogo45-66 and looked at the expression of several activation markers and co-stimulatory molecules by fluorescence activated cell scan (FACScan) analysis. […] Nogo-peptides are capable of normal presentation by APC and immunization leads to normal activation of T cells.

[6] = target: Bi MOG35-55 BIOTIN; assay: myelin antigen microarray, serum antibody binding to spotted feature 'Bi MOG35-55 BIOTIN'

**Q.** With Anti-mouse IgG/M (antibody) as the substance, how does the microarray signal (quantity and unit not named on the sheet) [1] read?
**A.** 50000

**Q.** For “Nogo23-44 (LESEVAISEELVQKYSNSALGH; SEQ ID NO:5) [pNogo23-44, peptide 23-44 of the extracellular 66-amino acid loop Nogo-66]”, which “T cell proliferative response against the immunizing antigen” value ([2]; C57BU6 animals, listed as Ng23-44) is on record?
**A.** T cell reaction

**Q.** What about the “epitope spreading of the B cell response to other myelin antigens” value [3] of the same substance?
**A.** to MOG and MBP peptides (especially in C57BU6 animals)

**Q.** Which results are given for “Nogo45-66 (VNSTIKELRRLFLVDDLVDSLK; SEQ ID NO:2) [pNogo45-66, peptide 45-66 of the extracellular 66-amino acid loop Nogo-66]”?
**A.** in vitro proliferation at the end of the experiment [4]: much stronger than against the EAE inducing antigen; cell surface expression of CD25, CD18, CD40L, CD62, CD69, CD28 and CTLA4e in T cells or CD80, CD86, CD40 in dendritic cells [5]: could not find any difference; T cell proliferative response against the immunizing antigen ([2]; SJL/J animals): strong and specific proliferative response; T cell proliferative response against the immunizing antigen ([2]; SJL/J animals, listed as Ng45-66): T cell reaction; strength as B cell antigen compared with the other peptides ([3]; mouse, in vivo): much stronger B cell antigen than any of the other two synthesized peptides

**Q.** Which results are given for “Nogo 1-22 (RIYKGVIQAIQKSDEGHPFRAY; SEQ ID NO:4) [pNogo1-22, peptide 1-22 of the extracellular 66-amino acid loop Nogo-66]”?
**A.** cell surface expression of CD25, CD18, CD40L, CD62, CD69, CD28 and CTLA4e in T cells or CD80, CD86, CD40 in dendritic cells [5]: could not find any difference; T cell proliferative response against the immunizing antigen ([2]; C57BU6 animals, listed as Ng1-22): T cell reaction; T cell proliferative response against the immunizing antigen ([2]; SJL/J animals): strong and specific proliferative response; T cell proliferative response against the immunizing antigen ([2]; SJL/J animals, listed as Ng1-22): T cell reaction; epitope spreading of the B cell response to other myelin antigens [3]: mainly to MBP peptides

**Q.** For Normal Mouse Serum, which microarray signal (quantity and unit not named on the sheet) [6] is on record?
**A.** 5
